According to patent US20080021107A1, “USE OF AMINO ACIDS FOR TREATMENT OF VARIOUS CONDITIONS” (UNIVERSITY OF ROCHESTER, priority 2002, published 2008):

Columns and labels:
[1] = tested on: hot flashes in post-menopausal women; assay: Oral administration to patients experiencing hot flashes as symptoms of postmenopausal hormone variation; settings: for side effects: human, in vivo, po
Description: Administration of L-Norleucine to Patients Experiencing Hot Flashes as Symptoms of Postmenopausal Hormone Variation […]

[2] = high-dose oral L-methionine; van der Griend et al. 2002; cited from earlier work
palmar hyperhidrosis = settings: L-methionine 1 g bid orally
[3] = tested on: hot flashes as a result of the post-partum state; settings: L-methionine 1 g bid orally
[4] = Backonja et al. 1998; Rowbotham et al. 1998; cited from earlier work

Compound	improvement in hot flash frequency ([1]; Patient No. 1, about 10 hot flashes per day, L-methionine 1 gram tid orally, after three weeks, benefit persisted for 3 months of therapy)	change in symptoms ([1]; Patient No. 1, L-methionine 500 mg three times daily for two weeks)	improvement in hot flash frequency ([1]; Patient No. 2, about 15 hot flashes per day, L-methionine 1 g tid orally, after three weeks, benefit persisted for 5 months of therapy)	improvement in nighttime hot flash frequency ([1]; Patient No. 3, about 7 hot flashes per day, L-methionine 500 mg tid orally, after three weeks)	improvement in both nighttime and daytime hot flash severity ([1]; Patient No. 3, L-methionine 500 mg tid orally, after three weeks)	side effects [1]	increase in serum homocysteine levels [2]	side effects (palmar hyperhidrosis)	reduction in the subjective severity of palmar hyperhidrosis (palmar hyperhidrosis; person, after 3 weeks)	side effects [3]	improvement in hot flash frequency ([3]; person, 3 severe nighttime and 2 moderate daytime hot flashes per day, after three weeks)	reduction in hot flashes ([1]; Example 4 Patient No. 1, 6 hot flashes/day at baseline, oral L-norleucine 1.5 grams 2x/day, starting 10 days after initiating, maintained for 3.5 months)	reduction in hot flashes ([1]; Example 4 Patient No. 2, 8 hot flashes/day at baseline, oral L-norleucine 1 gram 2x/day, starting 4 days after initiating, maintained for 1.5 months)	tolerability ([1]; Example 1 Patient No. 1, gabapentin therapy for several days)	patient withdrawal rate due to side effects (most often sleepiness and dizziness) [4]
CSCC[C@H](N)C(=O)O [L-methionine]	90%	without noticing an appreciable change	90%	66%	50%	No side effects	10 fold	No side effects	50%	No side effects	100%	–	–	–	–
CCCC[C@H](N)C(=O)O [L-norleucine]	–	–	–	–	–	No side effects	–	–	–	–	–	70%	87%	–	–
NCC1(CC(=O)O)CCCCC1 [gabapentin, Gabapentin, reference compound]	–	–	–	–	–	–	–	–	–	–	–	–	–	unable to tolerate the drug due to severe dizziness	approximately 13%
